Assay results taken from PubChem BioAssay (NCI).
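Grown in 96-well plates, cells were treated for 48 hours with each compound at five concentrations. Insufficient inhibition: endpoint recorded as highest concentration tested. GI50 = concentration required for 50% inhibition of growth. TGI denotes the concentration required for complete inhibition of growth.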

Key:
Assay in all cases: growth of human tumour cells (NCI), 48 h
CCRF-CEM leukemia = tested on: CCRF-CEM leukemia
KM12 colon = tested on: KM12 colon
M14 melanoma = tested on: M14 melanoma
NCI-H23 lung = tested on: NCI-H23 lung
NCI/ADR-RES ovarian = tested on: NCI/ADR-RES ovarian
OVCAR-4 ovarian = tested on: OVCAR-4 ovarian
PC-3 prostate = tested on: PC-3 prostate
SF-268 CNS = tested on: SF-268 CNS
T-47D breast = tested on: T-47D breast
HL-60(TB) leukemia = tested on: HL-60(TB) leukemia

Row | Compound | TGI (CCRF-CEM leukemia) [µM] | TGI (KM12 colon) [µM] | TGI (M14 melanoma) [µM] | TGI (NCI-H23 lung) [µM] | TGI (NCI/ADR-RES ovarian) [µM] | TGI (OVCAR-4 ovarian) [µM] | TGI (PC-3 prostate) [µM] | TGI (SF-268 CNS) [µM] | TGI (T-47D breast) [µM] | TGI (HL-60(TB) leukemia) [µM] | GI50 (CCRF-CEM leukemia) [µM] | GI50 (HL-60(TB) leukemia) [µM] | GI50 (KM12 colon) [µM] | GI50 (M14 melanoma) [µM] | GI50 (NCI-H23 lung) [µM] | GI50 (NCI/ADR-RES ovarian) [µM] | GI50 (OVCAR-4 ovarian) [µM] | GI50 (PC-3 prostate) [µM] | GI50 (T-47D breast) [µM]
1 | O=S(=O)(c1ccc(Br)cc1)n1c2ccc(Br)cc2c2nc3ccccc3nc21 | > 100 | > 100 | > 100 | > 100 | > 100 | > 100 | > 100 | > 100 | > 100 |  |  |  |  |  |  |  |  |  | 
2 | C/C=C/[C@@]1(OC(=O)c2ccccc2)C[C@@H]2CCCC[C@@H]21 | 45.4 | 32.9 | 32.3 | 31 | 41.1 | 32.2 | 37 | 32.4 | 36.5 | 30.9 |  |  |  |  |  |  |  |  | 
3 | CO/C(=N\N=C\c1cc(OC)ccc1OC)c1ccncc1 | > 10 | > 10 |  | > 10 | > 10 |  | > 10 | > 10 | > 10 | > 10 |  |  |  |  |  |  |  |  | 
4 | CN(C)CCNc1ccc(C(=O)NCCCN(C)CCCNC(=O)c2ccc(NCCN(C)C)c3c(=O)c4ccccc4[nH]c23)c2[nH]c3ccccc3c(=O)c12 | 1.02 | 0.906 | 1.53 | 2.78 | > 63.8 | 0.211 | 3.44 | 0.544 | 2.64 | 2.74 |  |  |  |  |  |  |  |  | 
5 | O=C1CSC2(CC(/C=C/c3ccccc3)=NN2c2cccc(S(=O)(=O)O)c2)N1c1nc2ccccc2s1 (stereo unspecified) | 49.5 | 38.3 | > 100 | 56.7 | > 100 | 54.1 | 59.3 |  | 52.5 | 94.6 |  |  |  |  |  |  |  |  | 
6 | CC12CC3C(CC1SCC(=O)O2)C3(C)C (stereo unspecified) | > 100 | > 100 | > 100 | > 100 |  | > 100 |  | > 100 |  | > 100 |  |  |  |  |  |  |  |  | 
7 | CC[C@@]1(O)C(=O)OCc2c1cc1n(c2=O)Cc2c-1nc1ccccc1c2/C=N\NC(=O)C(N)CC(C)C (stereo partly specified) | 0.629 |  | 0.648 | 0.112 | 0.856 | > 100 | > 100 | 3.68 | > 100 | > 100 |  |  |  |  |  |  |  |  | 
8 | O=C(COc1ccc(OCC(=O)N2C(=O)CC(=O)N(c3ccccc3)C2=S)cc1)N1C(=O)CC(=O)N(c2ccccc2)C1=S |  | > 100 | > 100 | > 100 | > 100 | > 100 | > 100 | > 100 |  |  |  |  |  |  |  |  |  |  | 
9 | S=c1sc2c(Cl)ncnc2n1-c1ccccc1 |  | 31 | 26.3 | 31.7 |  | 33.6 |  | 18.5 |  |  |  |  |  |  |  |  |  |  | 
10 | O=C(CSCC(=O)N/N=C/c1cc(I)cc(I)c1O)N/N=C/c1cc(I)cc(I)c1O |  | 88.2 | 43.6 | 25.3 | 59.9 | > 100 | > 100 | 22.6 | > 100 | 43.5 |  |  |  |  |  |  |  |  | 
11 | O=C1C2CCCCC2C(=O)N1n1c(Cc2ccc(Cl)cc2)n[nH]c1=O (stereo unspecified) | > 100 | > 100 | > 100 | > 100 | > 100 | > 100 | > 100 | > 100 | > 100 |  |  |  |  |  |  |  |  |  | 
12 | COc1cc2c(cc1OCCCN1CCN(CCCOc3cc4c(cc3OC)C(=O)N3CCC[C@H]3C=N4)CC1)C=CC(C)(C)O2 |  | 2.14 | 2.62 | 3.04 | 5.31 | 3.53 | 2.09 |  | 2.43 | 0.738 | 0.288 | 0.252 | 0.904 | 1.34 | 1.53 | 2.41 | 1.56 | 0.804 | 0.792
13 | C=C1C(=O)OC2/C=C(\C)C(OC(C)=O)C3OC3C(C)(O)CC(OC(=O)/C(C)=C/C)C12 (stereo unspecified) | 9.45 | 28.7 | 16 | 34.4 |  | 62.2 |  | 30.2 |  | 5.81 |  |  |  |  |  |  |  |  | 
14 | c1csc(-c2ccc(-c3ccc(-c4ccc(-c5cccs5)s4)s3)s2)c1 | 53.8 |  | > 100 | > 100 | > 100 |  |  | > 100 |  | 53.6 |  |  |  |  |  |  |  |  | 
15 | Nc1nc(Cl)cc(NCC2(O)CC(CO)C2)n1 (stereo unspecified) | > 100 | > 100 |  | > 100 | > 100 | > 100 | > 100 | > 100 | > 100 | > 100 |  |  |  |  |  |  |  |  | 
16 | CN(C)c1nc2sc3c(c2c(=O)o1)CCCC3 | > 100 | > 100 | > 100 | > 100 | > 100 | > 100 | > 100 |  | > 100 | > 100 |  |  |  |  |  |  |  |  | 
17 | COc1ccc(Cn2c(C)nc3c2C(=O)c2ccccc2C3=O)cc1 | 37.3 | 26.7 | 23.5 | 16.5 |  | 64.1 |  | 68.1 |  | 22.2 |  |  |  |  |  |  |  |  | 
18 | O=C1C=CC2CCC1C2 (stereo unspecified) | > 100 | > 100 | > 100 | > 100 | > 100 |  | > 100 | 58.6 | > 100 | > 100 |  |  |  |  |  |  |  |  | 
19 | Cc1ccc(C)n1-c1ccccc1C1SCCCS1 | > 100 | > 100 | > 100 | > 100 | > 100 | > 100 | > 100 | > 100 |  | > 100 |  |  |  |  |  |  |  |  | 
20 | CC1=NN(C(=O)CSc2nnc(SCC(=O)N3N=C(C)CC3(O)c3ccccc3)s2)C(O)(c2ccccc2)C1 (stereo unspecified) | > 100 | 93.2 | 36.1 | > 100 | 68.3 | > 100 | > 100 | 47.2 |  |  |  |  |  |  |  |  |  |  | 
21 | O=c1cnn(C/C=C\CO)c(=O)[nH]1 | > 100 | > 100 | > 100 | > 100 | > 100 |  | > 100 | > 100 | > 100 | > 100 |  |  |  |  |  |  |  |  | 
22 | O=C(O)CCCl | > 5000 | > 5000 | > 5000 | > 5000 |  | > 5000 |  | > 5000 |  | > 5000 |  |  |  |  |  |  |  |  | 
23 | COCOc1ccc(C(=O)C(C)c2ccc(OCOC)cc2OCOC)c(O)c1 (stereo unspecified) | > 100 |  | > 100 | > 100 |  | > 100 | > 100 | > 100 |  | > 100 |  |  |  |  |  |  |  |  | 
